According to EP0540143B1, “Compounds and methods for inhibition of HIV and related viruses” (priority 1991, dated 1993):
Values joined by “and” are separate entries in the source; they are usually repeats but may differ in a detail not shown here. Equal values may be shown once.

Columns and labels:
SIV virus = test: Test C (XTT), MT4 cells infected with SIV; format: cell-based; conditions: for % inhibition: Test C
Procedure: (§1) Tests A, B, C, and D (XTT)
(§2) MT4 cells in a medium of RPMI 1640, 5% FCS, penicillin/streptomycin are adjusted to 2x10^5 cells/ml and seeded into microplates (96 wells/plate) 100 µl cell suspension/well giving 2x10^4 cells/well. The compound to be tested is made into a 10 mg/ml mixture in DMSO and stored at -20°C. The compound in DMSO is diluted with medium containing 10% DMSO in a 10-fold dilution series to give 1 mg/ml, 10 mg/ml, and […] solutions. Further dilutions to 400, 40, 4 and 0.4 mg/ml are made in medium containing microplates. Fifty µl of the 400, 40, and 4 mg/ml are transferred to the cell-containing microplates with a multi-channel pipette (final concentration: 100, 10, and 1 mg/ml). Finally, 50 µl of virus suspension is added to each well (with a repetitive "Eppendorf" multipipett). Each plate has at least six wells with the following: [Test A: HIV virus; Test B: HIV(II) virus; Test C: SIV virus; Test D: No virus]; with no drug (virus control) and six wells without virus (medium control). The plate is put into a plastic bag and incubated for six days in CO2 atmosphere. To each well in the plate is added 50 µl of XTT ((2,3-bis[2-methoxy-4-nitro-5-sulfophenyl]-5-[(phenylamino)carbonyl]-2H-tetrazolium hydroxide), (1 mg/ml 0.01-0.02 mM N-metyl-phenazonium methosulfate). After six hours of incubation in CO2 atmosphere the plates are covered with adhesive plate sealers and gently mixed on a vortex. Optical densities are determined at a wavelength of 450 nm and a reference wavelength of 650 nm. The percent reduction of cytotoxocity caused by the virus infection is calculated as follows: (OD450 compound - OD450 inf cells)/(OD450 uninf cells - OD450 inf cells)x 100 [formula]

HIV virus = test: Test A (XTT), MT4 cells infected with HIV; format: cell-based; conditions: for inhibition at 0.1 µg/mL / inhibition at 10 µg/mL / inhibition at 100 µg/mL / inhibition at 1 µg/mL: Human immunodeficiency virus 1, MT4, Test A; for % inhibition: Test A
Procedure: as §1, §2

MT4 cells = test: Test D (XTT), MT4 cells, no virus; format: cell-based; conditions: Homo sapiens
Procedure: as §1, §2

HIV-2 = test: Test F (HIV-2 RT), RT activity in supernatant of infected MT-4/H9 cells; format: cell-based; conditions: for inhibition at 0.1 µg/mL / inhibition at 1 µg/mL / inhibition at 10 µg/mL / inhibition at 100 µg/mL: Human immunodeficiency virus 2, H9, Test F; for % inhibition: Test F
Procedure: (§3) Tests E, F, G, H (HIV-IRT, HIV-2RT, SIVRT, no virus)
(§4) MT-4/H9-cells are adjusted to 2x10^5 cells/ml medium (RPMI 1640, 5% FCS, penicillin/streptomycin) and seeded into microplates (96 wells/plate) […] cell suspension/well giving 2 x 10^4 cells/well. The compound to be tested is made 10 mg/ml in DMSO = stock solution (stored at -20°C). The compound dissolved in DMSO is diluted 25 times in medium to give 400 mg/ml. Further dilutions to 40 mg/ml and 4 mg/ml are made in microplates.
(§5) 50 µl of the dilutions 400 mg/ml, 40 mg/ml and 4mg/ml are transferred to the "cell-containing" microplate with a multichannel pipette. […]
(§6) Finally 50 µl of virus suspension is added to each well (with a repetitive "Eppendorf multipett"). [Test E-HIV-1; Test F-HIV-2; Test G-SIV; Test H-no virus].
(§7) Each plate has at least four wells with virus but no drug (virus control) and two wells without virus (medium control). The plate is put into a plastic bag to avoid evaporation and incubated for six days in CO2-atmosphere. 10 µl supernatant from each well is transferred with a multichannel pipette into a new microplate to which 40 ml VDB, (50 mM Tris-HCl pH = 7.6, 35 mM KCl, 4 mM DTT, 1 mM EDTA, 1.3% Triton X-100), have been added to each well. The addition of 50 ml RT-reaction mix, (10 ml culture supernatant, 40 ml VDB and 50 ml reaction mixture giving a final concentration of: 100 mM Tris-HCl pH = 7.6, 100 mM KCl, 4 mM MgCl2, 4 mM DTT, 275 mg/ml BSA/ml, 5 mg (rA)n(dT)12-18/ml and 0.3 mM ^3H dTTP (specific activity 18.000 cpm/pmol)) gives a final volume of […]/well. After 60 minutes of incubation the whole assay volume is transferred by use of a cell harvester to a filter mat prewetted with 5% TCA. The filter is washed in 5% TCA and rinsed once in ethanol. After drying the filter mat at 60°C for 30 min. each filter (96/mat) is punched out and put into counting vials 2 ml of scintillation fluid is added and the samples are counted (1 min) or the whole filter mat is put into a plastic bag, 10 ml of scintillation fluid is added and the filter mat is counted in a Beckman Betaplate counter. Percent reduction of RT activity is determined by comparing RT activity for virus control with the RT activity measured for each dilution of the compound.

HIV(II) virus = test: Test B (XTT), MT4 cells infected with HIV(II); format: cell-based; conditions: for inhibition at 0.1 µg/mL / inhibition at 1 µg/mL / inhibition at 10 µg/mL / inhibition at 100 µg/mL: Human immunodeficiency virus 1, MT4, Test B
Procedure: as §1, §2

HIV-1 = test: Test E (HIV-1 RT), RT activity in supernatant of infected MT-4/H9 cells; format: cell-based; conditions: for inhibition at 0.1 µg/mL / inhibition at 1 µg/mL / inhibition at 10 µg/mL / inhibition at 100 µg/mL: Human immunodeficiency virus 1, H9, Test E
Procedure: as §3, §4, §5, §6, §7

recombinant HIV-RT = recombinant HIV-RT (Human immunodeficiency virus type 1 group M subtype B, UniProt P04585); test: Test I (HIVRT (rAdt)), direct inhibition of recombinant HIV-RT; format: biochemical
Procedure: The compounds were tested for direct inhibitory activity on HIV-RT in a volume of […] recombinant HIV-RT (diluted in virus disruption buffer to give 200.000 cpm).
100 mM Tris-HCl pH 7.6, 100 mM KCl, 4 mM MgCl2, 4 mM DTT, 275 mg/ml BSA, 0.5 mg (rA)n(dT)12-18 and 0.3 mM ^3H- dTTP (specific activity […]). After 60 minutess of incubation 40 ml in duplicate were spotted on paper discs and washed in 5% TCA. After rinsing the paper discs in ethanol they were dried and counted in scintillation fluid.

[1] = Simian immunodeficiency virus, MT4, Test C, 1 µg/ml
[2] = Simian immunodeficiency virus, MT4, Test C

| SMILES | inhibition at 1 µg/mL (SIV virus; [1]) | inhibition at 10 µg/mL (SIV virus; [2]) | inhibition at 100 µg/mL (SIV virus; [2]) | inhibition at 0.1 µg/mL (HIV virus; 0.1 µg/ml) | inhibition at 10 µg/mL (HIV virus; 10 µg/ml) | inhibition at 100 µg/mL (HIV virus; 100 µg/ml) | % inhibition (HIV virus; 10 µg/ml) | inhibition at 10 µg/mL (MT4 cells) | inhibition at 100 µg/mL (MT4 cells) | inhibition at 0.1 µg/mL (HIV-2) | inhibition at 1 µg/mL (HIV-2; 1 µg/ml) | inhibition at 10 µg/mL (HIV-2; 10 µg/ml) | inhibition at 100 µg/mL (HIV-2; 100 µg/ml) | inhibition at 0.1 µg/mL (HIV(II) virus) | inhibition at 1 µg/mL (HIV(II) virus; 1 µg/ml) | inhibition at 10 µg/mL (HIV(II) virus) | inhibition at 100 µg/mL (HIV(II) virus) | inhibition at 1 µg/mL (HIV-1) | inhibition at 10 µg/mL (HIV-1) | inhibition at 100 µg/mL (HIV-1) | other results |
| --- | --- | --- | --- | --- | --- | --- | --- | --- | --- | --- | --- | --- | --- | --- | --- | --- | --- | --- | --- | --- | --- |
| Cc1nc(NC(=S)NCCc2ccccc2)sc1C | 0% | 1% | 0% | 7% | 85% | 99% | 88% | 0% | 0% | 1% | 92% | 61% | 93% | 13% | 100% | 100% | 85% | 23% | 91% | 94% | % inhibition (HIV virus; 100 µg/ml): 100%; inhibition at 0.1 µg/mL (HIV-1; 0.1 µg/ml): 1%; inhibition at 0.1 µg/mL (recombinant HIV-RT; 0.1 µg/ml): 34%; inhibition at 1 µg/mL (recombinant HIV-RT; 1 µg/ml): 39%; inhibition at 10 µg/mL (recombinant HIV-RT; 10 µg/ml): 38% |
| N#Cc1csc(NC(=S)NCCc2ccccc2)n1 | 5% | 2% | 0% | 84% | 0% | 0% | – | 70% | 93% | 67% | 91% | 94% | 96% | 74% | 90% | 0% | 0% | 98% | 98% | 98% | inhibition at 0.1 µg/mL (SIV virus; Simian immunodeficiency virus, MT4, Test C, 0.1 µg/ml): 11%; inhibition at 1 µg/mL (HIV virus; 1 µg/ml): 51%; % inhibition (HIV virus; 1 µg/ml): 63%; inhibition at 0.1 µg/mL (MT4 cells): 0%; inhibition at 1 µg/mL (MT4 cells): 53%; inhibition at 0.1 µg/mL (HIV-1; 0.1 µg/ml): 99%; % inhibition (recombinant HIV-RT; 0.1 µg/ml): 73%; inhibition at 0.1 µg/mL (recombinant HIV-RT; 0.1 µg/ml): 72%; % inhibition (recombinant HIV-RT; 1 µg/ml): 95%; inhibition at 1 µg/mL (recombinant HIV-RT; 1 µg/ml): 93%; % inhibition (recombinant HIV-RT; 10 µg/ml): 95%; inhibition at 10 µg/mL (recombinant HIV-RT; 10 µg/ml): 94% |
| S=C(NCCc1ccccc1)Nc1nc2ccccc2s1 | 0% | 1% | 8% | 0% | 100% | – | 99% | 27% | 23% | 1% | 87% | 84% | 96% | 17% | 99% | 100% | 50% | 77% | 96% | 95% | inhibition at 1 µg/mL (HIV virus; 1 µg/ml): 63%; % inhibition (HIV virus; 1 µg/ml): 53%; inhibition at 1 µg/mL (MT4 cells): 32%; inhibition at 0.1 µg/mL (HIV-1; 0.1 µg/ml): 1%; inhibition at 0.1 µg/mL (recombinant HIV-RT; 0.1 µg/ml): 39%; inhibition at 1 µg/mL (recombinant HIV-RT; 1 µg/ml): 36%; inhibition at 10 µg/mL (recombinant HIV-RT; 10 µg/ml): 40% |
| S=C(NCCc1ccccc1)Nc1nccs1 [the 1st table, row 1] | – | – | – | – | – | 48% | 99% and 100% and 70% and 98% | 33% | 45% | 43% | 75% | 57% | 95% | – | – | – | – | 99% | 99% | 99% | % inhibition (SIV virus; 0.1 µg/ml): 0% and 1%; % inhibition (SIV virus; 1 µg/ml): 0% and 8% and 2%; % inhibition (HIV virus; 0.1 µg/ml): 4%; % inhibition (HIV virus; 100 µg/ml): 58% and 64%; inhibition at 0.1 µg/mL (MT4 cells): 31%; inhibition at 1 µg/mL (MT4 cells): 18%; % inhibition (HIV-2; 1 µg/ml): 79%; % inhibition (HIV-2; 10 µg/ml): 76%; % inhibition (HIV-2; 100 µg/ml): 86%; % inhibition (HIV(II) virus; Test B, 1 µg/ml): 0%; % inhibition (HIV-1; Test E, 0.1 µg/ml): 10% and 1% |
